The test has as its target human P2X3 receptor (Homo sapiens (Human), UniProt P56373). Put plainly: P2X3 receptor inhibition, ATP-evoked Fluo-3 calcium fluorescence (FDSS 3000). The format is cell-based. The following applies: C6BU-1 cell transfected with human P2X3 receptor gene; ATP-evoked Fluo-3 fluorescence. The method, boiled down: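 C6BU-1 cells stably transfected with human P2X3, loaded with 4 μM Fluo-3-AM for 1 h at 37 °C in HEPES buffer pH 7.5 with probenecid. Compound added 5 min before 40 nM ATP solution; fluorescence followed 3 min. IC50 from ratio of peak post-ATP to baseline fluorescence.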

human P2X3 receptor, sequence (P56373 whole entry): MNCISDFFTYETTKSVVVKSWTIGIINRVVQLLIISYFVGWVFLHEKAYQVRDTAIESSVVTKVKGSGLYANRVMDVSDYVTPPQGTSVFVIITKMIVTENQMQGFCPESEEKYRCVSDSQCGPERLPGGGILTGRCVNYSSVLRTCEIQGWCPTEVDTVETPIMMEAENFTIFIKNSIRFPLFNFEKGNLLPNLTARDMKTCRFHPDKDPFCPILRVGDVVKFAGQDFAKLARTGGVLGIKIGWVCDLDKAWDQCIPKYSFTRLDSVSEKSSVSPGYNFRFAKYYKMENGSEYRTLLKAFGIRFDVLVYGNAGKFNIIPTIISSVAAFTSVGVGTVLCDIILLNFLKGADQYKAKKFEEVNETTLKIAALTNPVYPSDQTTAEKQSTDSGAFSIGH

On to `CC(C)(C)c1n[nH]c2c1C(c1ccccc1O)N(c1ccc(-c3ccon3)cc1)C2=O` (centres unmarked) [II-107], for which the IC50 (usually the concentration that inhibits the measured activity by half) is 114 nM.
In the case of `COc1ccccc1C1c2c(C(C)(C)CO)n[nH]c2C(=O)N1c1ccc(-c2cccs2)cn1` (centres unmarked) [II-264] it was 11 nM; in that of `COc1ncccc1C1C(C(=O)C(C)(C)C)=C(O)C(=O)N1c1ccc(-c2cccs2)cc1` (centres unmarked) [Compound I-115], 108 nM; in that of `Cc1ccc(-c2ccc(N3C(=O)C(O)=C(C(=O)CC(C)C)C3c3ccccc3OC(F)F)cc2)o1` (centres unmarked) [Compound I-361], 48 nM.
Regarding `CC(C)(C)c1n[nH]c2c1C(c1cccc[n+]1[O-])N(c1ccc(-c3cccs3)cc1)C2=O` (centres unmarked) [II-164], the IC50 turned out to be 36 nM.
Turning to `COc1ccccc1C1C(C(=O)C(C)C)=C(O)C(=O)N1c1ccc(-c2ccsc2)c(CO)c1` (centres unmarked) [Compound I-241], the IC50 stood at 822 nM.
On to `COCCOc1ncccc1C1c2c(C(C)C)n[nH]c2C(=O)N1c1ccc(-c2ccsc2)cc1` (centres unmarked) [II-278], for which the IC50 was 13 nM.
For `CC(C)(C)c1n[nH]c2c1C(c1ccccc1OCC(N)=O)N(c1ccc(-c3ccon3)cc1)C2=O` (centres unmarked) [II-075], the IC50 worked out at 153 nM.
For the compound `COc1ccccc1C1C(C(=O)C(C)(C)C)=C(O)C(=O)N1c1ccc(-c2ccco2)cc1` (centres unmarked) [Compound I-092], the IC50 came out at 92 nM.
On to `CSc1ccc(N2C(=O)C(O)=C(C(=O)C(C)C)C2c2ccccc2OCCCO)cc1` (centres unmarked) [Compound I-476], for which the IC50 is 51 nM.
The value for `CC(C)(C)c1n[nH]c2c1C(c1cccnc1OCCO)N(c1ccc(-c3cccs3)cc1)C2=O` (centres unmarked) [II-042] was 10 nM.
The value for `CC(C)c1n[nH]c2c1C(c1ccccc1CO)N(c1ccc(-c3ccsc3)cc1)C2=O` (centres unmarked) [II-086] was 32 nM.
With `Cc1ccc(-c2ccc(N3C(=O)C(O)=C(C(=O)CC(C)C)C3c3ccccc3OC(C)C)cc2)s1` (centres unmarked) [Compound I-402], the IC50 came out at 80 nM.
The value for `COCCOc1ccccc1C1C(C(=O)CC(C)C)=C(O)C(=O)N1c1ccc(-c2ccc(C)o2)cc1` (centres unmarked) [Compound I-381] was 7 nM; that for `COCc1ccccc1C1C(C(=O)C(C)C)=C(O)C(=O)N1c1ccc2c(c1)cc(C)n2C` (centres unmarked) [Compound I-353] was 210 nM; that for `CC(C)(C)c1n[nH]c2c1C(c1cccnc1OCCO)N(c1ccc(-c3ccoc3)cc1)C2=O` (centres unmarked) [II-041] was 27 nM.
The value for `Cc1nc(-c2ccc(N3C(=O)C(O)=C(C(=O)C(C)C)C3c3ccccc3OCC#N)cc2)no1` (centres unmarked) [Compound I-508] was 133 nM; that for `CC(C)C(=O)C1=C(O)C(=O)N(c2ccc(-c3ccsc3)cc2)C1c1ccccc1C(=O)N(C)C` (centres unmarked) [Compound I-245] was 47 nM; that for `COCCOc1ccccc1C1C(C(=O)C(C)(C)C)=C(O)C(=O)N1c1ccc(-c2cccs2)cc1` (centres unmarked) [Compound I-123] was 13 nM.
The value for `COCc1ccccc1C1C(C(=O)CC(C)C)=C(O)C(=O)N1c1ccc(-c2coc(C)n2)cc1` (centres unmarked) [Compound I-392] was 946 nM; that for `COCCOc1ccccc1C1C(C(=O)C(C)C)=C(O)C(=O)N1c1ccc(-c2ccco2)cc1` (centres unmarked) [Compound I-231] was 23 nM.
Take `COc1ccccc1C1c2c(C(C)(C)C)n[nH]c2C(=O)N1c1ccc(-c2cccn2C)cc1` (centres unmarked) [II-205]: the IC50 came out at 811 nM.
On to `COCCOc1ccccc1C1C(C(=O)CC(C)C)=C(O)C(=O)N1c1ccc(SC)cc1` (centres unmarked) [Compound I-435], for which the IC50 is 82 nM.
The value for `CSc1ccccc1C1c2c(C(C)(C)C)n[nH]c2C(=O)N1c1ccc(-c2ccon2)cc1` (centres unmarked) [II-099] was 46 nM.
The value for `COc1ccccc1C1c2c(C(C)C)n[nH]c2C(=O)N1c1ccc(-c2ccsc2)c(N)c1` (centres unmarked) [II-240] was 116 nM.
In the case of `COc1ccccc1C1c2c(C(C)(C)CO)n[nH]c2C(=O)N1c1ccc(-c2ccco2)cc1` (centres unmarked) [II-215] it was 15 nM; in that of `Cc1ccc(-c2ccc(N3C(=O)C(O)=C(C(=O)C(C)C)C3c3ccccc3C(=O)N(C)C)cc2)o1` (centres unmarked) [Compound I-397], 122 nM.
Take `COCCOc1ncccc1C1C(C(=O)C(C)C)=C(O)C(=O)N1c1ccc(-c2cccs2)cc1` (centres unmarked) [Compound I-228]: the IC50 came to 15 nM.
In the case of `Cc1ccc(-c2ccc(N3C(=O)C(O)=C(C(=O)C(C)C)C3c3ccccc3CCC(=O)NC(C)C)cc2)o1` (centres unmarked) [Compound I-538] it was 119 nM.
The value for `COc1ccc(-c2n[nH]c3c2C(C2CCCCC2)N(c2ccc4[nH]ccc4c2)C3=O)cc1` (centres unmarked) [II-055] was 548 nM.
Consider `COc1ccc(C(=O)C2=C(O)C(=O)N(c3ccc(-c4ccon4)cc3)C2c2ccc(Br)cc2OC)cc1` (centres unmarked) [Compound I-131], for which the IC50 worked out at 251 nM.
The value for `CC(C)(C)c1n[nH]c2c1C(c1ccccc1OCC(=O)O)N(c1ccc(-c3ccsc3)cc1)C2=O` (centres unmarked) [II-023] was 4 nM; that for `COc1ccccc1C1c2c(C(C)(C)CO)n[nH]c2C(=O)N1c1ccc(-c2nc(C)no2)cc1` (centres unmarked) [II-138] was 44 nM; that for `Cc1nc(-c2ccc(N3C(=O)C(O)=C(C(=O)c4cc[nH]c4)C3C3CCCCC3)cc2)no1` (centres unmarked) [Compound I-555] was 579 nM.
`COc1ccccc1C1c2c(C(C)(C)C)n[nH]c2C(=O)N1c1ccc(C(C)(C)O)cc1` (centres unmarked) [II-151]: the IC50 was found to be 650 nM.
The value for `COCCOc1ncccc1C1c2c(C(C)(C)C)n[nH]c2C(=O)N1c1ccc(SC)cc1` (centres unmarked) [II-034] was 46 nM.
In the case of `COc1ccccc1C1C(C(=O)CC(C)C)=C(O)C(=O)N1c1ccc(-c2cc(C)no2)cc1` (centres unmarked) [Compound I-339] it was 892 nM; in that of `COc1ccccc1C1C(C(=O)C(F)(F)F)=C(O)C(=O)N1c1ccc(-c2ccon2)cc1` (centres unmarked) [Compound I-010], 595 nM.
Consider `COc1ccccc1C1c2c(C(C)(C)CO)n[nH]c2C(=O)N1c1ccc(-c2noc(C)n2)cc1` (centres unmarked) [II-137], for which the IC50 is 148 nM.
The value for `Cc1nc(-c2ccc(N3C(=O)c4[nH]nc(C(C)(C)C)c4C3c3ccccc3OCCO)cc2)no1` (centres unmarked) [II-017] was 54 nM; that for `Cc1ccc(-c2ccc(N3C(=O)C(O)=C(C(=O)CC(C)C)C3c3cccnc3C(=O)NN(C)C)cc2)s1` (centres unmarked) [Compound I-576] was 237 nM; that for `Cc1ccc(-c2ccc(N3C(=O)C(O)=C(C(=O)C(C)C)C3c3ccccc3CC(=O)N(C)C)cc2)o1` (centres unmarked) [Compound I-493] was 105 nM.
The value for `COCc1ccccc1C1C(C(=O)C(C)C)=C(O)C(=O)N1c1ccc(SC)cc1` (centres unmarked) [Compound I-477] was 477 nM; that for `COCCOc1ccccc1C1c2c(C(C)(C)C)n[nH]c2C(=O)N1c1ccc(-c2cccs2)cc1` (centres unmarked) [II-114] was 12 nM; that for `CC(C)CC(=O)C1=C(O)C(=O)N(c2ccc(C3=NCCS3)cc2)C1c1ccccc1OC(C)C` (centres unmarked) [Compound I-413] was 42 nM.
The value for `CC(C)CC(=O)C1=C(O)C(=O)N(c2ccc(-c3ccoc3)cc2)C1c1ccccc1C(=O)N(C)C` (centres unmarked) [Compound I-430] was 153 nM; that for `CSc1ccc(N2C(=O)C(O)=C(C(=O)C(C)C)C2c2ccccc2OC(C)C)cc1` (centres unmarked) [Compound I-474] was 71 nM; that for `COc1ccccc1C1c2c(C(C)(C)C)n[nH]c2C(=O)N1c1ccc(Br)cn1` (centres unmarked) [II-246] was 871 nM.
Consider `COCCCOc1ncccc1C1C(C(=O)C(C)C)=C(O)C(=O)N1c1ccc(-c2ccc(C)o2)cc1` (centres unmarked) [Compound I-471], for which the IC50 came out at 19 nM.
As for `COc1cccc(OC)c1C1c2c(C(C)(C)C)n[nH]c2C(=O)N1c1ccc(-c2ccon2)cc1` (centres unmarked) [II-060], the IC50 was 538 nM.
